Experimental data: US20040254178A1, “Substituted heterocyclic compounds and methods of use” (Amgen Inc., priority 2003, published 2004)

These compounds were tested on LPS induced TNF release (assay: Lipopolysaccharide-Activated THP1 Cell TNF Production Assay). Conditions: Homo sapiens, THP-1, THP1 cells, 3 h at 37° C., secreted TNF-α read by ECL.
Format: cell-based
Description: Lipopolysaccharide-Activated THP1 Cell TNF Production Assay
THP1 cells are resuspended in fresh THP1 media (RPMI 1640, 10% heat-inactivated FBS, 1XPGS, 1XNEAA, plus 30 μM βME) at a concentration of 1E6/mL. One hundred microliters of cells per well are plated in a polystyrene 96-well tissue culture. One microgram per mL of bacterial LPS is prepared in THP1 media and is transferred to the wells. Test compounds are dissolved in 100% DMSO and are serially diluted 3 fold in a polypropylene 96-well microtiter plate (drug plate). HI control and LO control wells contain only DMSO. One microliter of test compound from the drug plate followed by 10 μL of LPS are transferred to the cell plate. The treated cells are induced to synthesize and secrete TNF-α at 37° C. for 3 h. Forty microliters of conditioned media are transferred to a 96-well polypropylene plate containing 110 μL of ECL buffer (50 mM Tris-HCl pH 8.0, 100 mM NaCl, 0.05% Tween 20, 0.05% NaN3 and 1% FBS) supplemented with 0.44 nM MAB610 monoclonal Ab (R&D Systems), 0.34 nM ruthenylated AF210NA polyclonal Ab (R&D Systems) and 44 μg/mL sheep anti-mouse M280 Dynabeads (Dynal). After a 2 h incubation at room temperature with shaking, the reaction is read on the ECL M8 Instrument (IGEN Inc.). A low voltage is applied to the ruthenylated TNF-α immune complexes, which in the presence of TPA (the active component in Origlo), results in a cyclical redox reaction generating light at […]. The amount of secreted TNF-α in the presence of compound compared with that in the presence of DMSO vehicle alone (HI control) is calculated using the formula: % control (POC)=(cpd−average LO)/(average HI−average LO)*100. Data (consisting of POC and inhibitor concentration in μM) is fitted to a 4-parameter equation (y=A+((B−A)/(1+((x/C)^D))), where A is the minimum y (POC) value, B is the maximum y (POC), C is the x (cpd concentration) at the point of inflection and D is the slope factor) using a Levenburg-Marquardt non-linear regression algorithm.

IC50, ≤ 20 µM:
Cc1c(C2CCN(C(=O)[C@@H](C)O)CC2)nnc(-c2cccc(C(F)(F)F)c2)c1-c1ccnc(NC(C)c2ccccc2)n1 (stereo in doubt) [2-Hydroxy-1-{4-[4-methyl-5-[2-(1-phenyl-ethylamino)-pyrimidin-4-yl]-6-(3-trifluoromethyl-phenyl)-pyridazin-3-yl]-piperidin-1-yl}-propan-1-one], Cc1c(C2CCN(C(=O)OCc3ccccc3)CC2)nnc(-c2cccc(C(F)(F)F)c2)c1-c1ccnc(NC(C)c2ccccc2)n1 (stereo not drawn) [4-[4-Methyl-5-[2-(1-phenyl-ethylamino)-pyrimidin-4-yl]-6-(3-trifluoromethylphenyl)-pyridazin-3-yl]-piperidine-1-carboxylic acid benzyl ester], Cc1c(C2CCNCC2)nnc(-c2cccc(C(F)(F)F)c2)c1-c1ccnc(NC(C)c2ccccc2)n1 (stereo not drawn) [{4-[5-Methyl-6-piperidin-4-yl-3-(3-trifluoromethyl-phenyl)-pyridazin-4-yl]-pyrimidin-2-yl}-(1-phenyl-ethyl)-amine]
